pIC50: −log10 of the molar value.
Columns and labels:
Assay type in all cases: biochemical
[1] = biological target: Factor XIa (Homo sapiens (Human), UniProt P03951); assay: Factor XIa enzyme inhibition assay (dose response, fluorogenic AMC substrate); settings: read-out: hFXIa IC50
Summary of the method: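 Fluorogenic progress curves (30 min, 1-min reads, 30° C) were recorded for 0.25 nM FXIa cleaving 50 μM Glp-Pro-Arg-AMC in Hepes pH 7.4 buffer with NaCl and Tween 20. Compounds were serially two-fold diluted, and IC50 was fitted with a Hill equation.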

[2] = biological target: Factor Xa (Homo sapiens (Human), UniProt P00742); assay: Dose response assay for protease inhibitors: Factor Xa; settings: selectivity, Factor Xa over Factor XIa
Chain of Factor Xa (P00742 235-488): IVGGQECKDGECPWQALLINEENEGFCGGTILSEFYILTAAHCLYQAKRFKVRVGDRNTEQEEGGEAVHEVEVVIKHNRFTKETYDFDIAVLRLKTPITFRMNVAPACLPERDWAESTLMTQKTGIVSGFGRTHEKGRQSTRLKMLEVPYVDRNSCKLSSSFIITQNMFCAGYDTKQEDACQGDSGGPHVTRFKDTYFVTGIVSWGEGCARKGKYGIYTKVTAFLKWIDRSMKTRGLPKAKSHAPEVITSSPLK
Chain of Factor Xa (P00742 41-179 partner): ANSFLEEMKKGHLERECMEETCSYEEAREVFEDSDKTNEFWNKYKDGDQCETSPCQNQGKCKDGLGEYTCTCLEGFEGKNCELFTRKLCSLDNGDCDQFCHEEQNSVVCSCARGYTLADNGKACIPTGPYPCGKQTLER
Summary of the method: (§1)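 Glp-Pro-Arg-AMC substrate (thrombin, trypsin) or Pro-Phe-Arg-AMC/Boc-Leu-Gly-Arg-AMC (Factor Xa), diluted to 100 μM, in 20 mM Hepes pH 7.4, 150 mM NaCl, 0.02% Tween 20; enzyme diluted to 0.5 nM before addition. Two-fold serial compound dilutions; kinetic reads at 30° C. Data yield IC50 and Kon.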

[3] = biological target: Thrombin (Homo sapiens (Human), UniProt P00734); assay: Dose response assay for protease inhibitors: thrombin; settings: selectivity, thrombin over Factor XIa
Summary of the method: as §1

[4] = test system: Trypsin; assay: Dose response assay for protease inhibitors: trypsin; settings: selectivity, trypsin over Factor XIa
Summary of the method: as §1

Chain of Factor XIa (P03951 388-625): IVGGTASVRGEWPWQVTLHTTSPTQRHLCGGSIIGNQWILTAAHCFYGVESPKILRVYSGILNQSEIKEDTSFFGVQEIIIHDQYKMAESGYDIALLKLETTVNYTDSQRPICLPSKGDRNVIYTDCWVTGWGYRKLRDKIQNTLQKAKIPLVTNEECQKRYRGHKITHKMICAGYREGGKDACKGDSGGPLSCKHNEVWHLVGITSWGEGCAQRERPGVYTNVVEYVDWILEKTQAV
Chain of Factor XIa (P03951 19-387 partner): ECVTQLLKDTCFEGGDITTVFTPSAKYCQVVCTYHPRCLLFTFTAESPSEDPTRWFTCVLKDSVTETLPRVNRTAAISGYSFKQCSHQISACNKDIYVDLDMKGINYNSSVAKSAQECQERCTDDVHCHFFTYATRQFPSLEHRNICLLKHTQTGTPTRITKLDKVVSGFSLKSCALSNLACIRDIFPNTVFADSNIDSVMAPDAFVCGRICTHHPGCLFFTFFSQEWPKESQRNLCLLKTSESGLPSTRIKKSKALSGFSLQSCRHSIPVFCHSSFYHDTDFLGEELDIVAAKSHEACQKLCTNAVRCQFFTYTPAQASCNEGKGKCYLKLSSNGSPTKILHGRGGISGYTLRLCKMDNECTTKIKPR

CC[C@@H](NC(=O)N1C(=O)[C@H](Cc2cc(C)nc(N)c2)[C@H]1C(=O)N(C)c1ccnn1C)c1cccc(F)c1F [Compound 1-151, (2S,3R)-3-((2-amino-6-methylpyridin-4-yl)methyl)-N2-(1-methyl-1H-pyrazol-5-yl)-N1-((R)-1-(2,3-difluorophenyl)propyl)-N2-methyl-4-oxoazetidine-1,2-dicarboxamide]
pIC50 [1]: > 8.00
Ratio: FXa/FXIa [2]: I (“I” indicates > 500)
Ratio: Thrombin/FXIa [3]: I (“I” indicates > 500)
Ratio: Trypsin/FXIa [4]: G (“G” indicates 1-100)

CC[C@@H](NC(=O)N1C(=O)[C@H](Cc2cc(C)nc(N)c2)[C@H]1C(=O)N(C)c1ccnn1C)c1cc(F)ccc1C [Compound 1-162, (2S,3R)-3-((2-amino-6-methylpyridin-4-yl)methyl)-N2-(1-methyl-1H-pyrazol-5-yl)-N1-((R)-1-(5-fluoro-2-methylphenyl)propyl)-N2-methyl-4-oxoazetidine-1,2-dicarboxamide]
pIC50 [1]: > 8.00
Ratio: FXa/FXIa [2]: I (“I” indicates > 500)
Ratio: Thrombin/FXIa [3]: I (“I” indicates > 500)
Ratio: Trypsin/FXIa [4]: G (“G” indicates 1-100)

CC[C@@H](NC(=O)N1C(=O)[C@H](Cc2cc(C)nc(N)c2)[C@H]1C(=O)N(C)c1ccnn1C)c1cc(F)ccc1F [Compound 1-163, (2S,3R)-3-((2-amino-6-methylpyridin-4-yl)methyl)-N2-(1-methyl-1H-pyrazol-5-yl)-N1-((R)-1-(2,5-difluorophenyl)propyl)-N2-methyl-4-oxoazetidine-1,2-dicarboxamide]
pIC50 [1]: > 8.00
Ratio: FXa/FXIa [2]: I (“I” indicates > 500)
Ratio: Thrombin/FXIa [3]: I (“I” indicates > 500)
Ratio: Trypsin/FXIa [4]: G (“G” indicates 1-100)

CC[C@@H](NC(=O)N1C(=O)[C@H](Cc2cc(C)nc(N)c2)[C@H]1C(=O)N(C)c1cnn(C)c1)c1cc(F)ccc1F [Compound 1-182, (2S,3R)-3-((2-amino-6-methylpyridin-4-yl)methyl)-N2-(1-methyl-1H-pyrazol-4-yl)-N1-((R)-1-(2,5-difluorophenyl)propyl)-N2-methyl-4-oxoazetidine-1,2-dicarboxamide]
pIC50 [1]: > 8.00
Ratio: FXa/FXIa [2]: I (“I” indicates > 500)
Ratio: Thrombin/FXIa [3]: H (“H” indicates 101-1000)
Ratio: Trypsin/FXIa [4]: G (“G” indicates 1-100)

CC[C@@H](NC(=O)N1C(=O)[C@H](Cc2cc(C)nc(N)c2)[C@H]1C(=O)N(C)c1cnn(C)c1)c1cc(C)cc(F)c1 [Compound 1-184, (2S,3R)-3-((2-amino-6-methylpyridin-4-yl)methyl)-N2-(1-methyl-1H-pyrazol-4-yl)-N1-((R)-1-(3-fluoro-5-methylphenyl)propyl)-N2-methyl-4-oxoazetidine-1,2-dicarboxamide]
pIC50 [1]: > 8.00
Ratio: FXa/FXIa [2]: I (“I” indicates > 500)
Ratio: Thrombin/FXIa [3]: H (“H” indicates 101-1000)
Ratio: Trypsin/FXIa [4]: G (“G” indicates 1-100)

CC[C@@H](NC(=O)N1C(=O)[C@H](Cc2cc(C)nc(N)c2)[C@H]1C(=O)N(C)c1cnn(C)c1)c1cc(C)cc(C)c1 [Compound 1-185, (2S,3R)-3-((2-amino-6-methylpyridin-4-yl)methyl)-N2-(1-methyl-1H-pyrazol-4-yl)-N1-((R)-1-(3,5-dimethylphenyl)propyl)-N2-methyl-4-oxoazetidine-1,2-dicarboxamide]
pIC50 [1]: > 8.00
Ratio: FXa/FXIa [2]: I (“I” indicates > 500)
Ratio: Thrombin/FXIa [3]: H (“H” indicates 101-1000)
Ratio: Trypsin/FXIa [4]: G (“G” indicates 1-100)

CC[C@@H](NC(=O)N1C(=O)[C@H](Cc2ccnc(N)c2)[C@H]1C(=O)N(C)c1nccn1C)c1cc(F)c(F)c(F)c1 [Compound 1-193, (2S,3R)-3-((2-aminopyridin-4-yl)methyl)-N2-(1-methyl-1H-imidazol-2-yl)-N1-((R)-1-(3,4,5-trifluorophenyl)propyl)-N2-methyl-4-oxoazetidine-1,2-dicarboxamide]
pIC50 [1]: > 8.00
Ratio: FXa/FXIa [2]: I (“I” indicates > 500)
Ratio: Thrombin/FXIa [3]: H (“H” indicates 101-1000)
Ratio: Trypsin/FXIa [4]: G (“G” indicates 1-100)

CC[C@@H](NC(=O)N1C(=O)[C@H](Cc2ccnc(N)c2)[C@H]1C(=O)N(C)c1nccn1C)c1ccc(F)c(C)c1F [Compound 1-194, (2S,3R)-3-((2-aminopyridin-4-yl)methyl)-N2-(1-methyl-1H-imidazol-2-yl)-N1-((R)-1-(2,4-difluoro-3-methylphenyl)propyl)-N2-methyl-4-oxoazetidine-1,2-dicarboxamide]
pIC50 [1]: > 8.00
Ratio: FXa/FXIa [2]: I (“I” indicates > 500)
Ratio: Thrombin/FXIa [3]: H (“H” indicates 101-1000)
Ratio: Trypsin/FXIa [4]: H (“H” indicates 101-1000)

CC[C@@H](NC(=O)N1C(=O)[C@H](Cc2ccnc(N)c2)[C@H]1C(=O)N(C)c1ccn(C)n1)c1cc(F)c(F)c(F)c1 [Compound 1-197, (2S,3R)-3-((2-aminopyridin-4-yl)methyl)-N2-(1-methyl-1H-pyrazol-3-yl)-N1-((R)-1-(3,4,5-trifluorophenyl)propyl)-N2-methyl-4-oxoazetidine-1,2-dicarboxamide]
pIC50 [1]: > 8.00
Ratio: FXa/FXIa [2]: I (“I” indicates > 500)
Ratio: Thrombin/FXIa [3]: I (“I” indicates > 500)
Ratio: Trypsin/FXIa [4]: H (“H” indicates 101-1000)

CC[C@@H](NC(=O)N1C(=O)[C@H](Cc2ccnc(N)c2)[C@H]1C(=O)N(C)c1ccn(C)n1)c1ccc(F)c(C)c1F [Compound 1-198, (2S,3R)-3-((2-aminopyridin-4-yl)methyl)-N2-(1-methyl-1H-pyrazol-3-yl)-N1-((R)-1-(2,4-difluoro-3-methylphenyl)propyl)-N2-methyl-4-oxoazetidine-1,2-dicarboxamide]
pIC50 [1]: > 8.00
Ratio: FXa/FXIa [2]: I (“I” indicates > 500)
Ratio: Thrombin/FXIa [3]: H (“H” indicates 101-1000)
Ratio: Trypsin/FXIa [4]: H (“H” indicates 101-1000)

CC[C@@H](NC(=O)N1C(=O)[C@H](Cc2ccnc(N)c2)[C@H]1C(=O)N(C)c1cnn(C)c1)c1cc(F)c(F)c(F)c1 [Compound 1-199, (2S,3R)-3-((2-aminopyridin-4-yl)methyl)-N2-(1-methyl-1H-pyrazol-4-yl)-N1-((R)-1-(3,4,5-trifluorophenyl)propyl)-N2-methyl-4-oxoazetidine-1,2-dicarboxamide]
pIC50 [1]: > 8.00
Ratio: FXa/FXIa [2]: I (“I” indicates > 500)
Ratio: Thrombin/FXIa [3]: H (“H” indicates 101-1000)
Ratio: Trypsin/FXIa [4]: H (“H” indicates 101-1000)

CC[C@@H](NC(=O)N1C(=O)[C@H](Cc2ccnc(N)c2)[C@H]1C(=O)N(C)c1ccnn1C)c1ccc(F)c(C)c1F [Compound 1-200]
pIC50 [1]: > 8.00
Ratio: FXa/FXIa [2]: I (“I” indicates > 500)
Ratio: Thrombin/FXIa [3]: I (“I” indicates > 500)
Ratio: Trypsin/FXIa [4]: H (“H” indicates 101-1000)

(2S,3R)-3-((2-aminopyridin-4-yl)methyl)-N2-(1-methyl-1H-imidazol-4-yl)-N1-((R)-1-cyclohexyl-2,2,2-trifluoroethyl)-N2-methyl-4-oxoazetidine-1,2-dicarboxamide [Compound 1-70]
pIC50 [1]: > 8.00
Ratio: FXa/FXIa [2]: I (“I” indicates > 500)
Ratio: Thrombin/FXIa [3]: G (“G” indicates 1-100)
Ratio: Trypsin/FXIa [4]: G (“G” indicates 1-100)

(2S,3R)-3-((2-aminopyridin-4-yl)methyl)-N2-(1-methyl-1H-pyrazol-3-yl)-N1-((S)-1-(3-chlorophenyl)ethyl)-N2-methyl-4-oxoazetidine-1,2-dicarboxamide [Compound 1-33]
pIC50 [1]: > 8.00
Ratio: FXa/FXIa [2]: H (“H” indicates 101-1000)
Ratio: Thrombin/FXIa [3]: H (“H” indicates 101-1000)
Ratio: Trypsin/FXIa [4]: G (“G” indicates 1-100)

Reference: patent publication US11691962B2 (eXIthera Pharmaceuticals, Inc., priority 2018, dated 2023)
